pIC50: −log10 of the molar value. “Also recorded” adds a separate entry of the source. Like-named read-outs stand apart in the source and are kept apart here. Numbered stars: 1 amine (or outer) side, 2 acyl side, 3 side chain; on linkers, the order of the positions; unused ones are H or OH. Bridge positions count the residues as written; N and C are the ends. Square brackets hold non-standard residues; d marks the D form. Peptide text beside a SMILES is read from it. * marks the point of attachment. Benzothiophen(2-yl)carbonyl = O=C(c1cc2ccccc2s1)*; X2 = CC[C@H](C)[C@@H](N[*:1])[C@@H](O)CC(=O)[*:2]; NMeY = CN[C@@H](Cc1ccc(O)cc1)C(=O)O; dNMeL = CN[C@H](CC(C)C)C(=O)O; Tos = Cc1ccc(S(=O)(=O)*)cc1; Hiv = CC(C)[C@H](O)C(=O)O; Aib = CC(C)(N)C(=O)O
Legend:
[1] = test system: HIV-1 (recombinant virus NL4.3 Luc); assay: microbe, parasite or virus in culture; assay type: cell-based; conditions: for pIC50: Human immunodeficiency virus 1, PBMC
in vitro = conditions: human
[2] = test system: HIV-1 (recombinant virus NL4.3 Luc); assay: microbe, parasite or virus in culture; assay type: cell-based
C-reactive protein = C-reactive protein tests in COVID-19 patients treated with PLD; assay type: in vivo, human
Method: The effect of PLD on inflammatory cytokines was also measured for patients 5, 7 and 9 and the results of C-reactive protein tests are shown in FIG. 36.

HCoV-229E = assay type: cell-based
SARS-CoV-2 (COVID-19) = assay: Study APLICOV-PC (NCT04382066): efficacy in patients hospitalised for COVID-19; assay type: in vivo, human
[3] = Huh-7, 50 nM, 5 nM and 0.5 nM, 24 hpi
[4] = interim results, 8 evaluable patients

CC[C@H](C)[C@H]1NC(=O)[C@@H](NC(=O)[C@@H](CC(C)C)N(C)S(=O)(=O)c2ccc(C)cc2)[C@@H](C)OC(=O)[C@H](Cc2ccc(OC)cc2)N(C)C(=O)[C@@H]2CCCN2C(=O)[C@H](CC(C)C)NC(=O)[C@H](C(C)C)OC(=O)C[C@@H]1O [Compound 11] (Tos-[dNMeL]T[X2][Hiv]LP[NMeY](Me); ester 2-C)
pIC50 [1]: 7.16

CC[C@H](C)[C@H]1NC(=O)[C@@H](NC(=O)[C@@H](CC(C)C)NC)[C@@H](C)OC(=O)[C@H](Cc2ccc(OC)cc2)N(C)C(=O)[C@@H]2CCCN2C(=O)[C@H](CC(C)C)NC(=O)C(C)(C)NC(=O)C[C@@H]1O [Compound 3] (H-[dNMeL]T[X2][Aib]LP[NMeY](Me); ester 2-C)
CC50 (in vitro): ~27000 nM
Toxic concentrations not reached at (MT-2 cells): > 57.3 µM
pIC50 ([2]; Human immunodeficiency virus 1, MT2, read-out: IC50 (antiviral activity), MT-2 cells infected with NL4.3 Luc, 48 hours): 5.86
pIC50 ([1]; read-out: IC50 (antiviral activity), preactivated PBMCs infected with NL4.3 Luc, 48 hours): 6.80

CC[C@H](C)[C@H]1NC(=O)[C@@H](NC(=O)C(CC(C)C)N(C)C(=O)[C@@H]2CCCN2C(=O)C(C)=O)[C@@H](C)OC(=O)[C@H](Cc2ccc(OC)cc2)N(C)C(=O)[C@@H]2CCCN2C(=O)[C@H](CC(C)C)NC(=O)[C@@H](C)C(=O)[C@H](C(C)C)OC(=O)C[C@@H]1O (stereo in doubt) [PLD, (−)-(3S,6R,7S,10R,11S,15S,17S,20S,25aS)-11-hydroxy-3-(4-methoxybenzyl)-2,6,17-trimethyl-15-(1-methylethyl)-7-[[(2R)-4-methyl-2-[methyl[[(2S)-1-(2-oxopropanoyl)pyrrolidin-2-yl]carbonyl]amino]pentanoyl]amino]-10-[(1S)-1-methylpropyl]-20-(2-methylpropyl)tetradecahydro-15H-pyrrolo[2,1-f]-[1,15,4,7,10,20]dioxatetrazacyclotricosine-1,4,8,13,16,18,21(17H)-heptone]
Acute fall of C-reactive protein seen by day (C-reactive protein; patient 5 (PLD 1.5 mg×3)): ≤ 2 days
Acute fall of C-reactive protein seen by day (C-reactive protein; patients 7 and 9 (PLD 2.0 mg×3)): ≤ 3 days
Cell growth / viability (fluorescence images) (Huh-7 cells; [3]): cells remain viable at all concentrations
Antiviral activity (fluorescence images) (HCoV-229E): remarkable antiviral properties are seen across all concentrations
Clinical course (single patient) (SARS-CoV-2 (COVID-19); PLD 1.5 mg×3, interim results): Acute clinical improvement; also recorded: lack of improvement; also recorded: prevented clinical deterioration; also recorded: Major clinical improvement
Clinical course (single patient) (SARS-CoV-2 (COVID-19); PLD 2.0 mg×3, interim results): major clinical improvement
PCR COVID 19 test at day 7 (single patient) (SARS-CoV-2 (COVID-19); PLD 2.0 mg×3, interim results): still positive
Removal of viral burden (SARS-CoV-2 (COVID-19); ad hoc analysis of the first cohort at 1.5 mg and 2 mg): complete removal of viral burden was noted in the vast majority of patients
Evaluable patients requiring post PLD specific anti COVID 19 therapy (SARS-CoV-2 (COVID-19); [4]): 2 out of 8
Evaluable patients with SARS-CoV-2 PCR conversion to negative (SARS-CoV-2 (COVID-19); [4]): 6 out of 8
Evaluable patients with disease control and major clinical improvements (SARS-CoV-2 (COVID-19); [4]): 6 out of 8
Deaths on study (SARS-CoV-2 (COVID-19); interim results, 9 patients): no deaths on study
Need for mechanical ventilation or ICU admission (SARS-CoV-2 (COVID-19); interim results, 9 patients): none of the patients required mechanical ventilation or ICU admission

CC[C@H](C)[C@H]1NC(=O)[C@@H](NC(=O)[C@@H](CC(C)C)N(C)C(=O)[C@@H]2CCCN2C(=O)[C@H](C)NC(=O)[C@@H](Cc2ccccc2)NC(=O)OC(C)(C)C)[C@@H](C)OC(=O)[C@H](Cc2ccc(OC)cc2)N(C)C(=O)[C@@H]2CCCN2C(=O)[C@H](CC(C)C)NC(=O)[C@@H](C)C(=O)[C@H](C(C)C)OC(=O)C[C@@H]1O [Compound 9]
Cell growth / viability (fluorescence images) (Huh-7 cells): cells remain viable at all concentrations
Antiviral activity (fluorescence images) (HCoV-229E): remarkable antiviral properties are seen across all concentrations
pIC50 ([1]; PBMCs, read-out: IC50): 9.20

CC[C@H](C)[C@H]1NC(=O)[C@@H](NC(=O)[C@@H](CC(C)C)N(C)C(=O)c2cc3ccccc3s2)[C@@H](C)OC(=O)[C@H](Cc2ccc(OC)cc2)N(C)C(=O)[C@@H]2CCCN2C(=O)[C@H](CC(C)C)NC(=O)[C@H](C(C)C)OC(=O)C[C@@H]1O [Compound 10] ({Benzothiophen(2-yl)carbonyl}-[dNMeL]T[X2][Hiv]LP[NMeY](Me); ester 2-C)
Cell growth / viability (fluorescence images) (Huh-7 cells; [3]): cells remain viable at all concentrations
Antiviral activity (fluorescence images) (HCoV-229E): remarkable antiviral properties are seen across all concentrations
pIC50 [1]: 9.07

CC[C@H](C)[C@H]1NC(=O)[C@@H](NC(=O)[C@H](CC(C)C)N(C)C(=O)[C@@H]2CCCN2C(=O)C(C)=O)[C@@H](C)OC(=O)[C@H](Cc2ccc(OC)cc2)N(C)C(=O)[C@@H]2CCCN2C(=O)[C@H](CC(C)C)NC(=O)[C@@H](C)C(=O)[C@H](C(C)C)OC(=O)C[C@@H]1O [Compound 8]
Antiviral activity ([2]; MT-2 cells): showed also antiviral activity
IC50 value, fold lower than the specific concentration of 10 μM ([2]; MT-2 cells and PBMCs, not told apart): 100 fold
Specificity of antiviral activity ([2]; at 10 μM, MT-2 cells and PBMCs, not told apart): specific
Specificity of antiviral activity ([2]; at 50 μM, MT-2 cells and PBMCs, not told apart): non-specific
Antiviral activity ([1]; PBMCs): showed also antiviral activity

Source: patent US20230158102A1 (priority 2020, published 2023)
